Test results as given in ChEMBL document CHEMBL1201862, “PubChem BioAssay data set” (2004).
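Cells were grown in 96-well plates and exposed to each compound for 48 hours at five concentrations; endpoints were interpolated linearly between bracketing concentrations, or set to the highest concentration if not reached. GI50: concentration for 50% inhibition of growth.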 Activity calls are given as the source filed them. Rule as the data show it: active = GI50 up to about 1.1 µM and inactive = higher.

How the values were obtained:
Experiment in all cases: growth of human tumour cells (NCI), 48 h
M14 = tested on: M14
SNB-19 = tested on: SNB-19
Hs-578T = tested on: Hs-578T
ACHN = tested on: ACHN
SNB-75 = tested on: SNB-75
UACC-62 = tested on: UACC-62
DMS-114 = tested on: DMS-114
EKVX = tested on: EKVX
SR = tested on: SR
SF-268 = tested on: SF-268
HL-60 = tested on: HL-60
MOLT-4 = tested on: MOLT-4
U-251 = tested on: U-251
UACC-257 = tested on: UACC-257
A549 = tested on: A549
BT-549 = tested on: BT-549
OVCAR-5 = tested on: OVCAR-5
786-0 = tested on: 786-0
SK-MEL-5 = tested on: SK-MEL-5
NCI/ADR-RES = tested on: NCI/ADR-RES

Compound	GI50 (M14)	GI50 (SNB-19)	GI50 (Hs-578T)	GI50 (ACHN)	GI50 (SNB-75)	GI50 (UACC-62)	GI50 (DMS-114)	GI50 (EKVX)	GI50 (SR)	GI50 (SF-268)	GI50 (HL-60)	GI50 (MOLT-4)	GI50 (U-251)	GI50 (UACC-257)	GI50 (A549)	GI50 (BT-549)	GI50 (OVCAR-5)	GI50 (786-0)	GI50 (SK-MEL-5)	GI50 (NCI/ADR-RES)
CCOC(=O)C(CC(C)C)NC(=O)C(N)Cc1ccc(N(CCCl)CCCl)cc1 (stereo unspecified)	2.83 µM (inactive)	12 µM (inactive)	18.6 µM (inactive)	0.333 µM (active)	3.94 µM (inactive)	1.35 µM (inactive)	1.69 µM (inactive)	17.9 µM (inactive)	0.0232 µM (active)	3.56 µM (inactive)	0.134 µM (active)	0.0637 µM (active)	3.79 µM (inactive)	10.3 µM (inactive)	6.95 µM (inactive)	15.8 µM (inactive)	11.8 µM (inactive)	1.69 µM (inactive)	5.62 µM (inactive)	–
CCSc1nc(COC(=O)NC)c(COC(=O)NC)n1C	> 64.1 µM (inactive)	> 100 µM (inactive)	> 100 µM (inactive)	16.6 µM (inactive)	> 100 µM (inactive)	34.1 µM (inactive)	46.6 µM (inactive)	> 100 µM (inactive)	51.3 µM (inactive)	70.1 µM (inactive)	82.6 µM (inactive)	43.4 µM (inactive)	> 84.9 µM (inactive)	> 100 µM (inactive)	> 97.5 µM (inactive)	> 100 µM (inactive)	> 100 µM (inactive)	99.5 µM (inactive)	> 100 µM (inactive)	> 100 µM (inactive)
OC[C@H]1O[C@@H](n2cnc3c(S)ncnc32)[C@H](O)[C@@H]1O [THIOINOSINE]	2360 µM (inactive)	> 1580 µM (inactive)	> 2440 µM (inactive)	> 2500 µM (inactive)	> 2120 µM (inactive)	1250 µM (inactive)	1830 µM (inactive)	> 2500 µM (inactive)	1890 µM (inactive)	> 2500 µM (inactive)	> 1760 µM (inactive)	2300 µM (inactive)	> 2450 µM (inactive)	> 2500 µM (inactive)	> 2500 µM (inactive)	> 2500 µM (inactive)	> 2500 µM (inactive)	> 2500 µM (inactive)	> 2500 µM (inactive)	2040 µM (inactive)
C=CCNC(=S)OCCCCCCCCCC	18.1 µM (inactive)	30.8 µM (inactive)	–	18.5 µM (inactive)	23.6 µM (inactive)	16.5 µM (inactive)	17 µM (inactive)	23.8 µM (inactive)	20.9 µM (inactive)	19.5 µM (inactive)	16.4 µM (inactive)	13.9 µM (inactive)	16.7 µM (inactive)	18.8 µM (inactive)	25.3 µM (inactive)	–	10.2 µM (inactive)	18.2 µM (inactive)	16.7 µM (inactive)	–
O=c1[nH]c(=O)n(C2CC(O)C(CS)O2)cc1F (stereo unspecified)	> 100 µM (inactive)	98.4 µM (inactive)	> 100 µM (inactive)	21.4 µM (inactive)	55.6 µM (inactive)	65.2 µM (inactive)	> 100 µM (inactive)	> 100 µM (inactive)	56.6 µM (inactive)	20.8 µM (inactive)	> 63.8 µM (inactive)	62.5 µM (inactive)	72.8 µM (inactive)	> 100 µM (inactive)	23.6 µM (inactive)	> 100 µM (inactive)	> 61.9 µM (inactive)	21.7 µM (inactive)	70.1 µM (inactive)	5.4 µM (inactive)
